Measurements: patent publication US20070037783A1, “Migrastatin analogs and uses thereof” (priority 2003, published 2007)

How the values were obtained:
[1] = test system: tumor cell migration; settings: literature value for natural migrastatin; read-out: IC50, wound healing assay (reported activity); cited from earlier work
[2] = test system: adherent cells (e.g. KYSE-520 cells); assay: Wound healing (scratch) assay (preliminary, Table 2); format: cell-based; settings: 28 to 30 h, compared to 100 μM Migrastatin, tested 200, 100, 50, 25, 10 μM
Protocol: 2. Wound Healing Assay (Table 2)
The wound healing assay was performed based on the method described by Nakae et al. (Nakae et al., J. Antibiotics (2000), 53, 1130-1136). Briefly, adherent cells were grown in a suitable media to confluence (e.g. KYSE-520 cells in RPMI-1640 with 10% FBS). Cells were starved for 24 h in serum free media. A scratch (ca. 0.5 mm) was applied and the cell layer was washed twice with PBS after removal of the media. Fresh, serum free media with the test compound at the desired concentration was added and the cells were incubated for 28 to 30 h at 37° C., 5% CO2. The scratch size was compared to that observed for cells exposed to 100 μM Migrastatin. Test compounds associated with a scratch size equal to or larger than that observed for cells exposed to 100 μM Migrastatin were deemed to have cell migration inhibitory activity at least equal to Migrastatin.

[3] = test system: cells; assay: Chamber cell migration assay, CyQuant readout (preliminary, Table 3); format: cell-based; settings: 36 h, tested 200, 100, 50, 25, 10 μM
Protocol: 3. Chamber Cell Migration Assay (Table 3)
Cells were grown in an appropriate media to 70 to 80% confluence and incubated in serum and growth factor free media for 24 h. Cells were detached by typsin treatment, collected by centrifugation and resuspended in serum free media to a final concentration of 150,000 cells/mL. 400 μL of the cell suspension were loaded into a fibronectin coated insert for 24 well multidishes. 750 μL fully supplemented media were applied to the compartment under the insert. To both chambers the inhibitor was added at the intended concentration and the plates were incubated for 36 h at 37° C., 5% CO2. […] The resulting CyQuant assay solution was transferred to the cavities of a 96 well microtiter plate and the fluorescence signal was recorded in an appropriate reader. The CyQuant dye forms a highly fluorescent complex with DNA, thus the fluorescence signal is proportional to the number of cells that migrated throught he membrane in the presence of the test compound (N^inh). […] The positive control fluorescent reading correlates with the number of cells that migrate through the membrane in the absence of inhibitor (N^+). […] The negative control fluorescent reading correlates with the number of cells that migrate through the membrane through non-directed processes (N^−). The anti-migratory effect of a test compound is determined by the ratio (N^inh−N^−)/(N^+−N^−).

[4] = test system: 4T1 tumor cells; assay: Cell proliferation assay (MTT); settings: Mus musculus, 4T1, 48 h, read-out: IC50, 4T1 cell proliferation
Protocol: Cell Proliferation Assay: 4×10^4 of 4T1 tumor cells in RPMI-1640 medium containing 10% FBS were seeded into wells of 96-multiwell plates (Becton-Dickinson) in the presence or absence of chemical compounds and then incubated at 37° C. for 48 h. An MTT kit (Cell Proliferation Kit I, Roche) (a colorimetric assay) was used to quantify cell proliferation and viability. The number of living cells, thus the total metabolic activity, directly correlates to the amount of purple formazan crystals formed (monitored by the absorbance).

[5] = test system: 4T1 mouse breast tumor cells; assay: Wound-healing assay with 4T1 cells (FIG. 6); format: cell-based; settings: with serum; 200 μM; overnight
From the text: In the wound healing assay, standard scratches (i.e., wounds) were made through a confluent 4T1 cell layer. In the absence of serum, cells would not migrate across the empty space created by application of the scratch. Upon addition of serum containing migration-enabling factors, migration of 4T1 cells across the scratch was induced. Exposure to these cells to inventive compounds allowed the evaluation of the cell migration inhibitory activity of these compounds.
Wound-Healing Assay (See FIG. 6). 4T1 mouse breast tumor cells in RPMI-1640 medium containing 10% fetal bovine serum (FBS) were seeded into wells of 24-multiwell plates (Becton-Dickinson). After cells grew to confluence, wounds were made with sterile pipette tips. Cells were washed with Phosphate Buffered Saline (PBS) and refreshed with growth medium containing different concentrations of chemical compounds. After overnight incubation at 37° C., cells were fixed and photographed.

[6] = test system: HUVECs (human umbilical vein endothelial cells); assay: Boyden chamber cell migration assay with HUVECs; format: cell-based; settings: Homo sapiens, HUVEC, read-out: IC50 (HUVEC)
Protocol: (§1) Chamber Cell Migration Assay (Tables 4 and 6): Cell migrations were assayed with Boyden chambers [8.0 μm pore size, polyethylene terephthalate membrane, FALCON cell culture insert (Becton-Dickinson)]. 4T1 mouse breast tumor cells or HUVECs were trypsinized and counted. 300 μl of 5-10×10^4 cells in serum-free medium was added to the upper chamber and 500 μl of medium with 10% fetal bovine serum (FBS) was added to the lower chamber. The transwells were incubated for 6-8 h at 37° C. with different concentrations of chemical compound in both upper and lower chamber. Cells on the inside of the transwell inserts were removed with a cotton swab, and cells on the underside of the insert were fixed and stained. Photographs of three random regions were taken and the number of cells was counted to calculate the average number of cells that have transmigrated.

[7] = test system: HUVEC; assay: Tube formation assay (preliminary, Table 1); format: cell-based, human; settings: minimal concentration causing definite disturbance of tube network, 16-18 h, tested 200, 100, 50, 25, 10 μM
Protocol: 1. Tube Formation Assay (Table 1):
A protocol was designed based on the instructions from the provider (BD Bioscience, San Jose, Calif.). Briefly, wells of a 48 well culture dish were covert with 150 μL matrigel and the matrigel was gelatinized for 30 min at 37° C. A 80-90% confluent HUVEC (BD Bioscience, San Jose, Calif.) culture was trypsin treated, the detached cells were collected by centrifugation and resuspended in EGM-2 media (BD Bioscience, San Jose, Calif.). Cell concentration was adjusted to 100.000 cells/mL. 400 μL of the cell suspension were filled in the matrigel coated wells, and a solution of the inhibitor was added to the intended final concentration. The plates were incubated at 37° C. with 5% CO2 for 16-18 h. Media was removed, and the matrigel surface was washed twice with 500 μL PBS before cells were labeled with 250 μL 8 μM Calcein AM (Pierce, Rockford, Ill.) in PBS for 30 min at 37° C. After two additional washing steps (500 μL PBS) cells were visualized under an inverted microscope. Fluorescence was excited at 488 nm and recorded at 538 nm. The minimum effect concentration was defined as the minimal inhibitor concentration that caused a definite disturbance of the complexity of the formed tube network.

[8] = Mouse plasma stability study (HPLC); format: in vitro ADME; settings: stable = intensity of HPLC signal unchanged over 60 min of incubation
Protocol: Mouse Plasma Stability Studies (Table 5): HPLC conditions: The sample is injected and separated using an Inertsil ODS3 6u 3×150 mm column with a mobile phase of MeCN and water (50% for migrastatin) at a flow of 0.4 mL/min, monitored at 220 nm at 0.02 AUFS (the retention time for migrastatin is ca. 4 min, the identity of this peak was confirmed by mass spectral analysis). Incubation and sample preparation conditions: A solution (ca. 30 mM) of chemical compound (Table 5) in DMSO is prepared. 2 μL of the solution is added to a mixture containing 200 μL of mouse plasma and 800 μL of PBS. The resulting solution is put into a water bath at 37° C., and 100 μL of sample is withdrawn at 10, 20, 30, 45, and 60 min. The precipitate is removed by centrifugation and 20 μL of the supernatant is injected onto the HPLC.

[9] = test system: 4T1 mouse breast tumor cells; assay: Boyden chamber cell migration assay with 4T1 tumor cells; format: cell-based; settings: Mus musculus, read-out: IC50 (4T1 tumor cells)
Protocol: The biological evaluation of the compounds (in terms of their ability to inhibit cell migration) was accomplished in a Boyden chamber cell migration assay. In this assay, mouse breast tumor cells (4T1 cells) or endothelial cells (HUVECs) are seeded on the upper chamber of a transwell insert. Growth factor-containing serum is added to the lower chamber.
as §1, with “The transwells were incubated for 6-8 h at 37° C. with different concentrations of chemical compound in both upper and lower chamber.” left out

CO[C@H]1/C=C/CC/C=C/C(=O)O[C@H]([C@H](C)C(=O)CCCC2CC(=O)NC(=O)C2)/C(C)=C\[C@@H](C)[C@@H]1O [migrastatin (1), Migrastatin]
IC50 [1]: 29 µM
Minimum effect concentration [2]: 100 µM
IC50 [3]: 200 µM
IC50 [4]: 42 µM
inhibition of 4T1 cell migration across the scratch, in words [5]: not as great
IC50 [6]: 65 µM
Minimum effect concentration [7]: 100 µM
stability (mouse plasma), in words [8]: stable^1
stability (mouse plasma), in words ([8]; listed as migrastatin): completely inert toward lactone opening
IC50 [9]: 29 µM
